# “And” between values parts separate entries of the source, which are not always exact repeats. Identical values can stand only once. Like-named read-outs stand apart in the source and are kept apart here.
# Experiments:
# A2780 = test: MTT antiproliferative assay, A2780; assay type: cell-based, human; conditions: for IC50: Homo sapiens, A2780, MTT, 72 h, ovarian cancer cells, read-out: IC50 Values (μM) ± SEM A2780; for Selectivity Index HEK293/A2780: IC50 HEK293 / IC50 A2780
# How it was run: (§1)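 Treatment lasted 72 h at six concentrations (0.1–30.0 µM) on cells plated the night before. Read-out: MTT, 4 h, then A545 nm after DMSO solubilisation, relative to untreated cells; two or more independent experiments, five replicate wells.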
# SiHa = test: MTT antiproliferative assay, SiHa; assay type: cell-based, human; conditions: for IC50: Homo sapiens, SiHa, MTT, 72 h, cervical cancer cells, read-out: IC50 Values (μM) ± SEM SiHa; for Selectivity Index HEK293/SiHa: IC50 HEK293 / IC50 SiHa
# How it was run: as §1
# BCL-2 = test: Native electrospray mass spectrometry, BCL-2; assay type: binding; conditions: 10 µM DNA, 20 µM ligand; for Bound DNA (%) BCL-2: 100 mM ammonium acetate
# Description: (§2) These parameters ensured a good signal intensity without disrupting noncovalent complexes, which was verified using d[G4T4G4]2 as a control. Oligonucleotides were purchased lyophilized, and RP-cartridge purified from Eurogentec (Kanaka Eurogentec, Seraing, Belgium), then buffer exchanged with ammonium acetate (5 M; Sigma-Aldrich, Saint-Quentin-Fallavier, France) using Amicon Ultra (3 K cut-off; Merck Millipore, Cork, Ireland). Sample solutions were prepared by diluting the proper volume of oligonucleotide stock solutions to reach 10 µM of DNA and 20 µM of ligand, in 100 mM ammonium acetate. The solutions were incubated for 16 h at 4 °C before analysis. Kd were calculated as already described.
# [1] = test system: ds26 (DNA, duplex) CAATCGGATCGAATTCGATCCGATTG; test: native ESI-MS; conditions: 100 mM NH4+ (ammonium acetate), pH 6.8, 10 µM DNA, 20 µM ligand, first of two successive steps
# [2] = test system: 24TTG (DNA, G4) TTGGGTTAGGGTTAGGGTTAGGGA; test: native ESI-MS; conditions: 100 mM NH4+ (ammonium acetate), pH 6.8, 10 µM DNA, 20 µM ligand, first of two successive steps
# [3] = test system: human telomeric sequence 24TTG; test: Native electrospray mass spectrometry, 24TTG; assay type: binding; conditions: 10 µM DNA, 20 µM ligand; for Bound DNA (%) 24TTG: 100 mM ammonium acetate
# Description: as §2
# HeLa = test: MTT antiproliferative assay, HeLa; assay type: cell-based, human; conditions: for IC50: Homo sapiens, HeLa, MTT, 72 h, cervical cancer cells, read-out: IC50 Values (μM) ± SEM HeLa; for Selectivity Index HEK293/HeLa: IC50 HEK293 / IC50 HeLa
# How it was run: as §1
# FdxT = test: FRET-melting, duplex control FdxT; assay type: binding; conditions: ligand 2 μM, DNA 0.2 μM, 10 mM KCl, 90 mM LiCl, pH 7.2, hairpin duplex
# K562 = test: MTS cell proliferation assay, K562; assay type: cell-based, human; conditions: for IC50: Homo sapiens, K562, 72 h, MTS, 3-day incubation, leukemia cells, read-out: IC50 Values (μM) ± SEM K562; for Selectivity Index HEK293/K562: IC50 HEK293 / IC50 K562
# How it was run: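 K562 cells in RPMI 1640 with 10% FCS were exposed in quadruplicate to 0, 1, 5, 10, 20 and 50 μM compound for 1, 2 and 3 days. Viability was read by MTS conversion after 3 h at 37 °C, measured at 490 nm. CC50 after 3 days was obtained by linear regression (μM ± SD).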
# MCF-7 = test: MTT antiproliferative assay, MCF-7; assay type: cell-based, human; conditions: for IC50: Homo sapiens, MCF7, 72 h, MTT, 72 h, breast cancer cells, read-out: IC50 Values (μM) ± SEM MCF-7; for Selectivity Index HEK293/MCF-7: IC50 HEK293 / IC50 MCF-7
# How it was run: as §1
# Fc-MYCT = test: FRET-melting, Fc-MYCT; assay type: binding; conditions: ligand 2 μM, DNA 0.2 μM, K+ conditions, pH 7.2
# [4] = first binding event (1:1 complex), read-out: Kd1 BCL-2
# [5] = second binding event (2:1 complex), read-out: Kd2 BCL-2
# [6] = first binding event (1:1 complex), read-out: Kd1 24TTG
# [7] = second binding event (2:1 complex), read-out: Kd2 24TTG
compound,measurement,setting,value
"CN(C)CCCNCc1ccc(-c2nc(-c3ccc(CNCCCN(C)C)cc3)c3cc(-c4ccccc4)ccc3n2)cc1 [Compound 12b, 2,4-bis{4-[(3-dimethylaminopropyl)aminomethyl]phenyl}-6-phenylquinazoline]",IC50,A2780,1.2 ± 0.27 µM
same,Selectivity Index HEK293/A2780,A2780,>25.0
same,IC50,SiHa,1.08 ± 0.1 µM
same,Selectivity Index HEK293/SiHa,SiHa,>27.8
same,Bound DNA (%) BCL-2,BCL-2,79%
same,Kd,BCL-2; [4],5.6 µM
same,Kd,BCL-2; [5],2.8 µM
same,Kd1,[1]; Kd2 130,17 µM
same,Kd1,"[2]; Kd2 1.5, cooperative",9.5 µM
same,Bound DNA (%) 24TTG,[3],77%
same,Kd,[3]; [6],9.5 µM
same,Kd,[3]; [7],1.5 µM
same,IC50,HeLa,0.82 ± 0.31 µM
same,Selectivity Index HEK293/HeLa,HeLa,>36.6
same,ΔT1/2 (°C) FdxT,FdxT,0.4 ± 0.3 °C
same,IC50,K562,14 ± 0.3 µM
same,Selectivity Index HEK293/K562,K562,>2.14
same,IC50,MCF-7,0.58 ± 0.02 µM
same,Selectivity Index HEK293/MCF-7,MCF-7,>51.7
same,ΔT1/2 (°C) Fc-MYCT,Fc-MYCT,5.8 ± 0.9 °C
"CN(C)CCCNCc1ccc(-c2cc(-c3ccc(CNCCCN(C)C)cc3)c3cc(-c4ccccc4)ccc3n2)cc1 [Compound 13a, 2,4-bis{4-[(3-dimethylaminopropyl)aminomethyl]phenyl}-6-phenylquinoline]",IC50,A2780,0.9 ± 0.04 µM
same,Selectivity Index HEK293/A2780,A2780,>33.3
same,IC50,SiHa,0.99 ± 0.15 µM
same,Selectivity Index HEK293/SiHa,SiHa,>30.3
same,Bound DNA (%) BCL-2,BCL-2,92%
same,Kd,BCL-2; [4],1.6 µM
same,Kd,BCL-2; [5],0.75 µM
same,Kd1,[1]; Kd2 95,14 µM
same,Kd1,[2]; Kd2 7.1,3.7 µM
same,Bound DNA (%) 24TTG,[3],81%
same,Kd,[3]; [6],3.7 µM
same,Kd,[3]; [7],7.1 µM
same,IC50,HeLa,0.5 ± 0.01 µM
same,Selectivity Index HEK293/HeLa,HeLa,>60.0
same,ΔT1/2 (°C) FdxT,FdxT,0.4 ± 0.1 °C
same,IC50,K562,10 ± 0.4 µM
same,Selectivity Index HEK293/K562,K562,>3.0
same,IC50,MCF-7,0.54 ± 0.01 µM
same,Selectivity Index HEK293/MCF-7,MCF-7,>55.5
same,ΔT1/2 (°C) Fc-MYCT,Fc-MYCT,7.3 ± 1.0 °C
"CN1CCN(CCCCNCc2ccc(-c3cc(-c4ccc(CNCCCCN5CCN(C)CC5)cc4)c4cc(-c5ccccc5)ccc4n3)cc2)CC1 [Compound 13d, 2,4-bis{4-[(4-(4-methylpiperazin-1-yl)butyl)aminomethyl]phenyl}-6-phenylquinoline]",IC50,A2780,2.1 ± 0.09 µM
same,IC50,SiHa,1.11 ± 0.37 µM
same,Bound DNA (%) BCL-2,BCL-2,33%
same,Kd,BCL-2; [4],53 µM
same,Kd,BCL-2; [5],20 µM
same,Kd1,[1]; Kd2 460,85 µM
same,Kd1,[2]; Kd2 83,29 µM
same,Bound DNA (%) 24TTG,[3],39%
same,Kd,[3]; [6],29 µM
same,Kd,[3]; [7],83 µM
same,IC50,HeLa,2.27 ± 0.89 µM
same,ΔT1/2 (°C) FdxT,FdxT,0.8 ± 0.2 °C
same,IC50,K562,14 ± 0.3 µM
same,IC50,MCF-7,1.62 ± 0.09 µM
same,ΔT1/2 (°C) Fc-MYCT,Fc-MYCT,10.6 ± 0.7 °C
"CN1CCN(CCCCNCc2ccc(-c3nc(-c4ccc(CNCCCCN5CCN(C)CC5)cc4)c4cc(-c5ccccc5)ccc4n3)cc2)CC1 [Compound 12e, 2,4-bis{4-[(4-(4-methylpiperazin-1-yl)butyl)aminomethyl]phenyl}-6-phenylquinazoline]",IC50,A2780,2.19 ± 0.41 µM
same,IC50,SiHa,0.63 ± 0.05 µM
same,Bound DNA (%) BCL-2,BCL-2,79%
same,Kd,BCL-2; [4],6.2 µM
same,Kd,BCL-2; [5],2.2 µM
same,Kd1,[1]; Kd2 280,30 µM
same,Kd1,"[2]; Kd2 1.9, cooperative",14 µM
same,Bound DNA (%) 24TTG,[3],72%
same,Kd,[3]; [6],14 µM
same,Kd,[3]; [7],1.9 µM
same,IC50,HeLa,1.27 ± 0.02 µM
same,ΔT1/2 (°C) FdxT,FdxT,5.4 ± 1.6 °C
same,IC50,K562,13 ± 0.2 µM
same,IC50,MCF-7,1.27 ± 0.01 µM
same,ΔT1/2 (°C) Fc-MYCT,Fc-MYCT,19.5 °C and 19.5 ± 1.0 °C

# Reference: paper PMC10819771 (Pharmaceuticals, 2023)
